Consider three compounds from ChEMBL document CHEMBL1139088, “Antihyperglycemic and antidyslipidemic agent from Aegle marmelos” (2007).

The species named for assay [1] is Homo sapiens. The assay can be described thus: Inhibition of alpha-glucosidase.
Assay [2] has as its system Rattus norvegicus. The assay can be described thus: Increase in blood glucose levels in Sprague-Dawley Albino rat at 100 mg/kg, po after 5 hrs. The assay is classed as functional.
The test system of assay [3] is Rattus norvegicus. The assay can be described thus: Increase in blood glucose levels in Sprague-Dawley Albino rat at 100 mg/kg, po after 24 hrs. The assay is classed as functional.
Assay [4] concerns Hamster. Put plainly: Decrease in plasma triglyceride levels in dyslipidemic hamster model at 50 mg/kg after 7 days. The format is functional, Cricetinae. On the set-up: scale not given: the % may be the effect or the level left.
The subject of assay [5] is Hamster. The assay can be described thus: Decrease in plasma triglyceride levels in dyslipidemic hamster model at 30 mg/kg after 7 days. The assay is classed as functional, Cricetinae. Also on record: scale not given: the % may be the effect or the level left.
The test system of assay [6] is Hamster. The assay can be described thus: Decrease in plasma cholesterol levels in dyslipidemic hamster model at 50 mg/kg after 7 days. The format is functional, Cricetinae. Also on record: scale not given: the % may be the effect or the level left.
Assay [7] deals with Hamster. The assay can be described thus: Decrease in plasma cholesterol levels in dyslipidemic hamster model at 30 mg/kg after 7 days. The format is functional, Cricetinae. Also on record: scale not given: the % may be the effect or the level left.
Assay [8] deals with Hamster. The assay can be described thus: Increase in plasma HDL-C levels in dyslipidemic hamster model at 50 mg/kg after 7 days. The format is functional, Cricetinae.
Assay [9] concerns Hamster. The assay can be described thus: Increase in plasma HDL-C levels in dyslipidemic hamster model at 30 mg/kg after 7 days. On the set-up: dose 30 mg/kg. The assay is classed as functional, organism-based. The conditions noted are these: Cricetinae.
In assay [10] the test system is Hamster. The assay can be described thus: Decrease in plasma glycerol levels in dyslipidemic hamster model at 50 mg/kg after 7 days. The assay is classed as functional, Cricetinae. On the set-up: scale not given: the % may be the effect or the level left.
Assay [11] concerns Hamster. The assay can be described thus: Decrease in plasma glycerol levels in dyslipidemic hamster model at 30 mg/kg after 7 days. The assay is classed as functional, Cricetinae. On the set-up: scale not given: the % may be the effect or the level left.
In assay [12] the test system is Hamster. The assay can be described thus: Decrease in plasma FFA levels in dyslipidemic hamster model at 50 mg/kg after 7 days. The format is functional, Cricetinae. Also on record: scale not given: the % may be the effect or the level left.
Assay [13] has as its system Hamster. The assay can be described thus: Decrease in plasma FFA levels in dyslipidemic hamster model at 30 mg/kg after 7 days. On the set-up: scale not given: the % may be the effect or the level left. The assay is classed as functional, Cricetinae.
Assay [14] has as its system Hamster. Put plainly: Increase in ratio of plasma HDL to plasma cholesterol levels at 50 mg/kg after 7 days. The assay is classed as functional, Cricetinae.
Assay [15] relates to Hamster. Put plainly: Increase in ratio of plasma HDL to plasma cholesterol levels at 30 mg/kg after 7 days. The format is functional, Cricetinae.
The species entered for assay [16] is Homo sapiens. The assay can be described thus: Inhibition of PTPase.
Assay [17] relates to Hamster. Put plainly: Decrease in plasma triglyceride levels in dyslipidemic hamster model at 108 mg/kg after 7 days. The assay is classed as functional, Cricetinae. Also on record: scale not given: the % may be the effect or the level left.
The test system of assay [18] is Hamster. Put plainly: Decrease in plasma cholesterol levels in dyslipidemic hamster model at 108 mg/kg after 7 days. The format is functional, Cricetinae. Also on record: scale not given: the % may be the effect or the level left.
In assay [19] the test system is Hamster. The assay can be described thus: Increase in plasma HDL-C levels in dyslipidemic hamster model at 108 mg/kg after 7 days. On the set-up: dose 108 mg/kg. As to conditions: Cricetinae. The assay is classed as functional, organism-based.
In assay [20] the test system is Hamster. The assay can be described thus: Decrease in plasma glycerol levels in dyslipidemic hamster model at 108 mg/kg after 7 days. Also on record: scale not given: the % may be the effect or the level left. The format is functional, Cricetinae.
Assay [21] deals with Hamster. Put plainly: Decrease in plasma FFA levels in dyslipidemic hamster model at 108 mg/kg after 7 days. The assay is classed as functional, Cricetinae. On the set-up: scale not given: the % may be the effect or the level left.
Assay [22] relates to Hamster. The assay can be described thus: Increase in ratio of plasma HDL to plasma cholesterol levels at 108 mg/kg after 7 days. The format is functional, Cricetinae.

The source made the active and inactive calls. The calls are words filed in the database; no cut-off is given here.

For the compound `COc1ccc([C@@H](O)CNC(=O)/C=C/c2ccccc2)cc1` [AEGELINE], the outcome in the assay filed under Homo sapiens [1], with Hamster [9] and in the assay listed under Homo sapiens [16] was inactive. In addition, the Activity in the assay with Rattus norvegicus [2] is listed as 12.9%; with Rattus norvegicus [3], 16.9%; in the assay on Hamster [4], 55%; in the assay with Hamster [5], 48%; in the assay on Hamster [6], 24%; in the assay on Hamster [7], 17%. Further, the Activity was 28% in the assay with Hamster [8]; 31% with Hamster [10]; 23% in the assay with Hamster [11]; 24% in the assay on Hamster [12]; 14% in the assay with Hamster [13]; 66% in the assay on Hamster [14]. Moreover, in the assay on Hamster [15], the Activity was determined as 20%.
On to `CC(C)OC(=O)C(C)(C)Oc1ccc(C(=O)c2ccc(Cl)cc2)cc1` [FENOFIBRATE], for which the Activity in the assay on Hamster [17] was 42%; with Hamster [18] it was 18%; with Hamster [20] it was 36%; in the assay with Hamster [21] it was 20%; in the assay on Hamster [22], 10%. The result in the assay with Hamster [19] was inactive.
Turning to `CN(C)C(=N)NC(=N)N` [METFORMIN], the figures for the Activity with Rattus norvegicus [2] and with Rattus norvegicus [3] were 23.5% and 26.5%, respectively.
